In experiment [1] the test system is Mycobacterium tuberculosis. Nature of the experiment: Antimycobacterial activity against Mycobacterium tuberculosis H37Rv assessed as bacterial growth inhibition incubated for 1 week by resazurin reduction microplate assay. It is filed as functional. As to conditions: 168 h, time 1 weeks.
Experiment [2] addresses T1, Decaprenylphosphoryl-beta-D-ribose oxidase (Mycobacterium tuberculosis (strain ATCC 25618 / H37Rv), UniProt P9WJF1).
T1 sequence (P9WJF1 whole entry): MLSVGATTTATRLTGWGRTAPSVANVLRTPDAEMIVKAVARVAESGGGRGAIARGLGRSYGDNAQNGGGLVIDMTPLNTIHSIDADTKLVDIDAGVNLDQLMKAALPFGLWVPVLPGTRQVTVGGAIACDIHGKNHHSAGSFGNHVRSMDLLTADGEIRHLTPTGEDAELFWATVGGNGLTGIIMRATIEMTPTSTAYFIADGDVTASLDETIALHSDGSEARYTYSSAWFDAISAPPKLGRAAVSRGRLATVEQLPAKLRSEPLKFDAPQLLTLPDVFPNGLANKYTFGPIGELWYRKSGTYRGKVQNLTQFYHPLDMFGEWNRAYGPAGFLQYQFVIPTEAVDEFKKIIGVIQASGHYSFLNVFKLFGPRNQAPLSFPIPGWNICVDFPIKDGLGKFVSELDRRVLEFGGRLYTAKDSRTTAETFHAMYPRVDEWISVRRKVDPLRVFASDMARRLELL
Description: Inhibition of Mycobacterium tuberculosis H37Rv DprE1 assessed as formation of resorufin using farnesyl-phosphoryl-beta-D-ribofuranose by AmplexRed reagent based fluorescence assay.

Experiment [3] concerns Mycobacterium tuberculosis. Nature of the experiment: Antitubercular activity against Mycobacterium tuberculosis H37Rv assessed as bacterial growth inhibition. The format is functional.
Experiment [4] deals with Mycobacterium tuberculosis. Description: Antitubercular activity against Mycobacterium tuberculosis H37Rv assessed as bacterial growth inhibition by REMA analysis. It is filed as functional.
For experiment [5], the system named is Mycobacterium tuberculosis. Description: Antitubercular activity against Mycobacterium tuberculosis H37Rv infected in human THP-1 cells assessed as bacterial growth inhibition incubated for 48 hrs by PrestoBlue staining based fluorescence analysis. As to conditions: THP-1, 48 h. It is filed as functional, organism-based.
The test system of experiment [6] is Mycobacterium tuberculosis. Description: Antitubercular activity against Mycobacterium tuberculosis H37Rv assessed as bacterial growth inhibition incubated for 7 days by resazurin reduction microplate assay. The format is functional. As to conditions: 168 h, time 7 day.
Experiment [7] relates to Mycobacterium tuberculosis. Description: Antitubercular activity against Mycobacterium tuberculosis H37Rv assessed as bacterial growth inhibition incubated for 6 days by resazurin based fluorescence assay. The format is functional. As to conditions: 144 h, time 6 day. On the technique in general: The colour change of resazurin is a common sign of viable cells or microbes.

Experiment [8] relates to Mycobacterium tuberculosis. Nature of the experiment: Antitubercular activity against Mycobacterium tuberculosis H37Rv assessed as bacterial growth inhibition incubated for 24 hrs by [14C]-acetate labelling based radiometric analysis. The format is functional.
Experiment [9] relates to Mycobacterium tuberculosis. Nature of the experiment: Antitubercular activity against Mycobacterium tuberculosis H37Rv infected in human HepG2 cells assessed as reduction in colony forming unit by CFU analysis. The format is functional, organism-based.
Experiment [10] deals with Mycobacterium tuberculosis. Description: Antimycobacterial activity against Mycobacterium tuberculosis H37Rv assessed as bacterial growth inhibition incubated for 6 days by resazurin dye based assay. The format is functional. The conditions noted are these: 144 h, time 6 day.
The subject of experiment [11] is Mycobacterium tuberculosis. Nature of the experiment: Antitubercular activity against Mycobacterium tuberculosis assessed as bacterial growth inhibition. The format is functional.
Experiment [12] has as its system Mycobacterium tuberculosis. Nature of the experiment: In vivo antimycobacterial activity against Mycobacterium tuberculosis H37Rv infected in BALB/c mouse assessed as reduction in log10 CFU in lungs at 50 mg/kg, po and measured after 4 weeks. It is filed as functional.
The subject of experiment [13] is Mycobacterium tuberculosis. Description: In vivo antimycobacterial activity against Mycobacterium tuberculosis H37Rv infected in BALB/c mouse assessed as reduction in log10 CFU in lungs at 12.5 mg/kg, po and measured after 4 weeks. The format is functional.
Experiment [14] deals with Mycobacterium tuberculosis. Description: Antitubercular activity against Mycobacterium tuberculosis H37Rv assessed as bacterial growth inhibition incubated for 6 days by resazurin reduction microplate assay. It is filed as functional. The conditions noted are these: 144 h, time 6 day.
Experiment [15] concerns Mycobacterium tuberculosis. Nature of the experiment: Antitubercular activity against Mycobacterium tuberculosis H37Rv infected in human HepG2 cells assessed as bacterial growth inhibition incubated for 4 weeks by resazurin reduction microtiter assay. It is filed as functional, organism-based. The conditions noted are these: HepG2, 672 h.
Experiment [16] concerns Mycobacterium tuberculosis. Description: Antimycobacterial activity against Mycobacterium tuberculosis H37Rv ATCC27294 assessed as bacterial growth inhibition incubated for 7 days by microplate Alamar blue assay. The format is functional. As to conditions: H37Rv ATCC27294, 168 h, time 7 day.
The test system of experiment [17] is Mycobacterium tuberculosis. Description: Antitubercular activity against Mycobacterium tuberculosis H37Rv ATCC25618 assessed as bacterial growth inhibition incubated for 6 days by resazurin based fluorescence analysis. The format is functional. As to conditions: H37Rv ATCC25618, 144 h, time 6 day.
For experiment [18], the system named is Mycobacterium tuberculosis. Description: Antitubercular activity against Mycobacterium tuberculosis H37Rv ATCC 27294 infected in mouse J774 cells assessed as intracellular bacterial growth inhibition incubated for by resazurin microtiter assay. The format is functional.
Experiment [19] has as its system Mycobacterium tuberculosis. Description: Antitubercular activity against Mycobacterium tuberculosis H37Rv ATCC 27294 assessed as bacterial growth inhibition by resazurin microtiter assay. The format is functional.
Experiment [20] relates to Mycobacterium tuberculosis. Nature of the experiment: Antitubercular activity against Mycobacterium tuberculosis MDR_CHUV assessed as bacterial growth inhibition by REMA analysis. The format is functional.
The test system of experiment [21] is Mycobacterium tuberculosis. Description: Antitubercular activity against Mycobacterium tuberculosis mc2 7000 assessed as bacterial growth inhibition incubated for 6 days by resazurin based fluorescence assay. It is filed as functional. As to conditions: mc2 7000, 144 h, time 6 day.
Experiment [22] deals with Mycobacterium tuberculosis. Description: Antitubercular activity against Mycobacterium tuberculosis H37Rv assessed as bacterial growth inhibition and measured upto 14 days by microplate alamar blue assay. The format is functional. As to conditions: 336 h, time <= 14 day.

Experimental findings from ChEMBL document CHEMBL5260858, “Targeting mycobacterial membranes and membrane proteins: Progress and limitations” (Bioorg Med Chem, 2023) are described below.

In brackets after ≈: the same amount, converted by molar mass. Where only a bound is given, the exact number is not on record here.

The term MIC denotes the least concentration at which growth counts as inhibited. A word on the IC50: it is the concentration that inhibits the measured activity by half. The MIC50 is the lowest concentration that inhibits either 50% of growth or 50% of the strains tested, depending on the study. For orientation: MIC99 means an inhibitory concentration at the 99% level, which refers to growth in some studies and to a panel of isolates in others. By MIC90 is commonly meant an inhibitory concentration at the 90% level, which refers to growth in some studies and to a panel of isolates in others.

For the compound `O=c1nc(N2CCN(CC3CCCCC3)CC2)sc2c(-n3cccc3)cc(C(F)(F)F)cc12`, the minimum inhibitory concentration (MIC) in experiment [1] was 0.34 µM (≈ 0.162 µg/mL). Besides, the IC50 in experiment [2] was below 8 µM.

As to `CCCCCCCCn1cc(CN2CCC3(CC2)OCCCO3)c2ccc(OC)cc21`, in experiment [3], the MIC50 was 0.5 µM. Take `CCOc1ccc(CNc2nc3cc(C(F)(F)F)ccc3nc2C(=O)O)cc1`: the MIC99 in [4] was 3.1 µM (≈ 1.21 µg/mL). As to `CCSc1nc(NC)c2cccc(F)c2n1`, the IC50 in experiment [5] was 0.013 µg/mL (≈ 0.0548 µM). In addition, the MIC in experiment [6] came to 0.04 µg/mL (≈ 0.169 µM). Consider `CCCCCCCN1CCN(c2nc(=O)c3cc(C(F)(F)F)cc([N+](=O)[O-])c3s2)CC1`, for which the MIC in experiment [4] was 0.00019 µg/mL (≈ 0.000414 µM). As for `c1cc2c(s1)CCOC21CCN(Cc2ccc3c(c2)OCCO3)CC1`, the MIC in experiment [7] was found to be 0.38 µM (≈ 0.136 µg/mL). Take `CCCCCCCCn1cc(CN2CCCCCC2)c2c(F)cccc21`: in experiment [3], the MIC50 turned out to be 2.3 µM. As for `CCc1ccc([C@H]2C[C@@H](C(F)(F)F)n3ncc(C(=O)NCc4ccc(F)cn4)c3N2)cc1`, the MIC in [8] was found to be 0.5 µM (≈ 0.224 µg/mL). For `CCOC(=O)c1nc2ccc(C(F)(F)F)cc2nc1NCc1ccc(OC)cc1`, the MIC99 in experiment [4] came to 3.1 µM (≈ 1.26 µg/mL). For the same compound, in experiment [9], the IC50 was found to be 6.1 µM. As for `CC(C)/N=c1\cc2n(-c3ccc(Cl)cc3)c3ccccc3nc-2cc1Nc1ccc(Cl)cc1` [CLOFAZIMINE], the MIC in experiment [3] was 0.12 µg/mL (≈ 0.253 µM). Consider `O=c1nc(N2CCN(S(=O)(=O)c3cccs3)CC2)sc2c([N+](=O)[O-])cc(C(F)(F)F)cc12`, for which the MIC in experiment [10] is 0.004 µg/mL (≈ 0.0079 µM). Turning to `CN(C)CCCN1c2ccccc2Sc2ccc(Cl)cc21` [CHLORPROMAZINE], in [11], the MIC was determined as 25 µg/mL (≈ 78.4 µM).

Take `C[C@H]1COC2(CCN(c3nc(=O)c4cc(C(F)(F)F)cc(-n5cccc5)c4s3)CC2)O1`: the MIC in experiment [1] amounted to 0.35 µM (≈ 0.158 µg/mL). Also, in experiment [2], the IC50 was below 8 µM. `O=c1nc(N2CCN(CCCCc3ccccc3)CC2)sc2c([N+](=O)[O-])cc(C(F)(F)F)cc12`: the MIC in experiment [4] was 0.00035 µg/mL (≈ 0.000711 µM). As for `O=C1CCc2c(cccc2OC[C@]2(O)CCN(c3c(F)cc(Cl)cc3F)C[C@H]2O)N1`, the MIC in experiment [11] is 0.0005 µg/mL (≈ 0.00114 µM).

Regarding `CC1(C)CCC(NC(=O)c2cc3c(F)cc(F)cc3[nH]2)CC1`, the results for the Activity in experiment [12] and in experiment [13] were 3.4 log10CFU and 0.9 log10CFU, respectively. As for `O=c1nc(N2CCN(CCC3CCCCC3)CC2)sc2c([N+](=O)[O-])cc(C(F)(F)F)cc12`, in [4], the MIC turned out to be 0.00019 µg/mL (≈ 0.000404 µM). Turning to `O=C(/C=C/c1ccsc1)N1CCN(Cc2ccc3c(c2)OCO3)CC1`, the MIC in experiment [14] was 0.1 µg/mL (≈ 0.281 µM). The IC50 in experiment [15] is 0.3 µg/mL (≈ 0.842 µM).

With `O=c1nc(N2CC3CN(Cc4ccc(Cl)c(F)c4)CC3C2)sc2c([N+](=O)[O-])cc(C(F)(F)F)cc12` (configuration not stated), the MIC in experiment [16] was below 0.035 µM. Turning to `CCS(=O)(=O)N1CCN(c2nc(=O)c3cc(C(F)(F)F)cc([N+](=O)[O-])c3s2)CC1`, the MIC in [10] was found to be 0.003 µg/mL (≈ 0.00663 µM). As for `CCc1ccc(NC(=O)COc2cc(C)nc3ccc(OC)cc23)cc1`, the MIC in experiment [17] came out at 0.02 µg/mL (≈ 0.0571 µM). On to `NC(=O)c1cnccn1` [PYRAZINAMIDE], for which the MIC in [3] was determined as 3.12 µg/mL (≈ 25.3 µM). As for `COc1ccc(/C=C2/S/C(=N/N=C/c3ccccc3O)NC2=O)cc1`, the MIC in experiment [18] amounted to 4 µg/mL (≈ 11.3 µM). Moreover, the MIC90 in [19] came to 1 µg/mL (≈ 2.83 µM). Consider `C[C@H]1COC2(CCN(c3nc(=O)c4cc(C(F)(F)F)cc([N+](=O)[O-])c4s3)CC2)O1` [BTZ-043], for which the MIC99 in experiment [20] worked out at 0.002 µg/mL (≈ 0.00464 µM). On to `CCOC(=O)c1c(-c2ccccc2)oc2ccc(O)c(CN3CCC(C)CC3)c12`, for which, in experiment [21], the MIC turned out to be 2.3 µM (≈ 0.905 µg/mL). Consider `COc1ccc(CNc2nc3cc(C(F)(F)F)ccc3nc2C(=O)O)cc1`, for which, in experiment [4], the MIC99 stood at 3.1 µM (≈ 1.17 µg/mL). Besides, in [9], the IC50 worked out at 2.5 µM. In the case of `FC(F)(F)c1ccc2c(c1)N(CCC[P+](c1ccccc1)(c1ccccc1)c1ccccc1)c1ccccc1S2.[Cl-]`, the MIC50 in [3] amounted to 1 µg/mL.

Turning to `CN1CCN(CCCN2c3ccccc3Sc3ccc(C(F)(F)F)cc32)CC1` [TRIFLUOPERAZINE], in [11], the minimal inhibitory concentration (MIC) amounted to 5 µg/mL (≈ 12.3 µM). As for `Cc1cc(C)c2cc(C(=O)NC3CCCCCC3)[nH]c2c1`, the MIC in experiment [22] turned out to be 0.0156 µg/mL (≈ 0.0549 µM).
